Test results published in article PMC6267684, “Pharmacokinetic evaluation of the PNC disassembler metarrestin in wild-type and Pdx1-Cre;LSL-Kras^G12D/+;Tp53^R172H/+ (KPC) mice, a genetically engineered model of pancreatic cancer” (Cancer Chemotherapy and Pharmacology, 2018).
pIC50: −log10 of the molar value.

System: PNC in PC3M cells
Experiment: PNC disassembly assay in PC3M cells
Type: cell-based
Conditions: PC3M (PTB-GFP) cells
Method: The PNC disassembly assay has been previously described. […] Cells were fixed with […] for 10 min at room temperature. […] Confocal images were obtained using Opera Phoenix (PerkinElmer, Waltham, MA) and a 20× objective lens.
To examine whether measured intratumor metarrestin concentrations measured in PK studies track with intracellular metarrestin concentration, we first decided to synthesize a fluorophore conjugated analog of metarrestin. Structure activity relationship studies around the structure of metarrestin were conducted in a high throughput assay that measured in dose dependence the ability of compounds to reducing PNC prevalence in PC3M cells. […] This analog was chemically conjugated to the fluorophore boron-dipyrromethene (BODIPY®) to track the disassembly of the PNC in PC3M cancer cells by confocal microscopy (Suppl. Figure 2). […] Next, to examine cellular metarrestin levels in relation to extracellular concentrations, we exposed KPC and PC3M cells at 1 and 10 µM concentrations of metarrestin and harvested cells at different timepoints.

pIC50: 7.05
SMILES: N=c1c2c(-c3ccccc3)c(-c3ccccc3)n(Cc3ccccc3)c2ncn1C1CCOCC1 [NCGC00244845]
